These results are taken from patent US8193203B2, “Bicyclic compounds having activity at the CXCR4 receptor” (Allergan, Inc., priority 2008, dated 2012).

Molecules are shown by their SMILES.

In the experiment the target is T1, human CXCR4 receptor (Homo sapiens, UniProt P61073).
T1 construct: expressed in transfected cells
The experiment is described as follows: Measurement of intracellular Ca+2 responses (FLIPR), antagonism of the SDF-1α response. The format is cell-based. To be noted: for IC50: HEK-Gqi5 cells stably expressing human CXCR4, Fluo-4 FLIPR, antagonism of SDF-1α 1.9 nM (EC65); for CXCR4 (% Inh): percent antagonism of SDF-1α 1.9 nM (EC65) response, HEK-Gqi5 human CXCR4 cells, value in brackets. The method, boiled down:
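HEK-Gqi5 cells stably expressing CXCR4, Fluo-4-loaded (2 uM, 40 min, 37 °C), read on FLIPR. Compound (2.44-40,000 nM) added first for agonism, then SDF-1α at 1.9 nM final (EC65); IC50 and percent antagonism from second-addition calcium signal.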

T1 sequence (P61073 whole entry): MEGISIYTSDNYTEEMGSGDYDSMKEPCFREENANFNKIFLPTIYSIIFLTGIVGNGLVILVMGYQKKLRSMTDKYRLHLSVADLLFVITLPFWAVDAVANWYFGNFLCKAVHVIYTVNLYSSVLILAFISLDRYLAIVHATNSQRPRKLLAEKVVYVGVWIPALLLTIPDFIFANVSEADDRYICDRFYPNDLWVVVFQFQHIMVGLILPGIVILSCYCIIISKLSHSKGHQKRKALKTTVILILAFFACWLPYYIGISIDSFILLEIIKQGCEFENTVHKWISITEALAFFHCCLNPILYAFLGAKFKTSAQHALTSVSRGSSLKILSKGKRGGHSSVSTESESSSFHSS

A word on the IC50: it is the concentration that gives 50% inhibition. On to `COc1cc2nc(NCCCN(C)C)nc(NC3CCN(Cc4c(OC)cccc4N(C)CCN(C)C)CC3)c2cc1OC` [Compound 157, N˜4˜-[1-(2-{[2-(Dimethylamino)ethyl](methyl)amino}-6-methoxybenzyl)piperidin-4-yl]-N˜2˜-[3-(dimethylamino)propyl]-6,7-dimethoxyquinazoline-2,4-diamine], for which the “CXCR4 (% Inh)” value is 94%. The compound further returned a half-maximal inhibitory concentration (IC50) (values in nM) of 411 nM.
The like results for `CCN(CC)CCCNc1nc(NC2CCN(Cc3c(OCCN(C)C)cccc3N(C)C)CC2)c2cc(OC)c(OC)cc2n1` [Compound 166, N˜2˜-[3-(Diethylamino)propyl]-N˜4˜-(1-{2-(dimethylamino)-6-[2-(dimethylamino)ethoxy]benzyl}piperidin-4-yl)-6,7-dimethoxyquinazoline-2,4-diamine] were, in that order, 94% and 49 nM.
The like results for `COc1cccc(N(C)C)c1CN1CCCC(Nc2nc(NCCCN(C)C)nc3ccccc23)CC1` (stereo not shown) [Compound 174, N˜4˜-{1-[2-(Dimethylamino)-6-methoxybenzyl]azepan-4-yl}-N˜2˜-[3-(dimethylamino)propyl]quinazoline-2,4-diamine] were, in that order, 97% and 770 nM.
Regarding `COc1cc2nc(NCCCN(C)C)nc(NCCNCc3c(OC)cccc3N(C)C)c2cc1OC` [Compound 178, N˜4˜-(2-{[2-(Dimethylamino)-6-methoxybenzyl]amino}ethyl)-N˜2˜-[3-(dimethylamino)propyl]-6,7-dimethoxyquinazoline-2,4-diamine], the “CXCR4 (% Inh)” value amounted to 49%. This compound also came in with an IC50 (values given in μM) greater than 10000 nM.
On to `COc1cc2nc(NCCN)nc(NC3CCN(Cc4c(OCCN(C)C)cccc4N(C)C)CC3)c2cc1OC` [Compound 180, N˜2˜-(2-Aminoethyl)-N˜4˜-(1-{2-(dimethylamino)-6-[2-(dimethylamino)ethoxy]benzyl}piperidin-4-yl)-6,7-dimethoxyquinazoline-2,4-diamine], for which the “CXCR4 (% Inh)” value was determined as 94%. Also, 116 nM corresponded to half-maximal inhibition (values in nM) (IC50).
The like results for `COc1cc2nc(NCCCN)nc(NC3CCN(Cc4c(OCCN(C)C)cccc4N(C)C)CC3)c2cc1OC` [Compound 182, N˜2˜-(3-Aminopropyl)-N˜4˜-(1-{2-(dimethylamino)-6-[2-(dimethylamino)ethoxy]benzyl}piperidin-4-yl)-6,7-dimethoxyquinazoline-2,4-diamine] were, in that order, 94% and 47 nM.
The like results for `CCN(CC)CCOc1cccc(N(C)C)c1CN1CCC(Nc2nc(NCCN(C)C)nc3cc(OC)c(OC)cc23)CC1` [Compound 189, N˜4˜-(1-{2-[2-(Diethylamino)ethoxy]-6-(dimethylamino)benzyl}piperidin-4-yl)-N˜2˜-[2-(dimethylamino)ethyl]-6,7-dimethoxyquinazoline-2,4-diamine] were, in that order, 94% and 45 nM.
The like results for `COc1cc2nc(NCCN(C)C)nc(NC3CCN(Cc4c(OCCN5CCCC5)cccc4N(C)C)CC3)c2cc1OC` [Compound 193, N˜2˜-[2-(Dimethylamino)ethyl]-N˜4˜-{1-[2-(dimethylamino)-6-(2-pyrrolidin-1-ylethoxy)benzyl]piperidin-4-yl}-6,7-dimethoxyquinazoline-2,4-diamine] were, in that order, 95% and 65 nM.
With `COc1cc2nc(NC[C@@H](O)CO)nc(NC3CCN(Cc4c(OCCN(C)C)cccc4N(C)C)CC3)c2cc1OC` [Compound 194, 3-({4-[(1-{2-(Dimethylamino)-6-[2-(dimethylamino)ethoxy]benzyl}piperidin-4-yl)amino]-6,7-dimethoxyquinazolin-2-yl}amino)propane-1,2-diol], the “CXCR4 (% Inh)” value came out at 96%. Where the note is “values in nM”, this compound showed an IC50 of 74 nM.
As for `COc1cc2nc(NC[C@H](O)CO)nc(NC3CCN(Cc4c(OCCN(C)C)cccc4N(C)C)CC3)c2cc1OC` [Compound 195, 3-({4-[(1-{2-(Dimethylamino)-6-[2-(dimethylamino)ethoxy]benzyl}piperidin-4-yl)amino]-6,7-dimethoxyquinazolin-2-yl}amino)propane-1,2-diol], the “CXCR4 (% Inh)” value amounted to 98%. The compound also yielded an IC50 (values in nM) of 31 nM.
With `COc1cc2nc(NCC(O)CN)nc(NC3CCN(Cc4c(OCCN(C)C)cccc4N(C)C)CC3)c2cc1OC` (stereo not shown) [Compound 196, 1-Amino-3-({4-[(1-{2-(dimethylamino)-6-[2-(dimethylamino)ethoxy]benzyl}piperidin-4-yl)amino]-6,7-dimethoxyquinazolin-2-yl}amino)propan-2-ol], the “CXCR4 (% Inh)” value is reported as 95%. The compound further had an IC50 (values in nM) of 38 nM.
The like results for `COc1cc2nc(NCc3cncs3)nc(NC3CCN(Cc4c(OCCN(C)C)cccc4N(C)C)CC3)c2cc1OC` [Compound 197, N˜4˜-(1-{2-(Dimethylamino)-6-[2-(dimethylamino)ethoxy]benzyl}piperidin-4-yl)-6,7-dimethoxy-N˜2˜-(1,3-thiazol-5-ylmethyl)quinazoline-2,4-diamine] were, in that order, 85% and 34 nM.
The like results for `COc1cc2nc(NCc3cncn3C)nc(NC3CCN(Cc4c(OCCN(C)C)cccc4N(C)C)CC3)c2cc1OC` [Compound 198, N˜4˜-(1-{2-(Dimethylamino)-6-[2-(dimethylamino)ethoxy]benzyl}piperidin-4-yl)-6,7-dimethoxy-N˜2˜-[(1-methyl-1H-imidazol-5-yl)methyl]quinazoline-2,4-diamine] were, in that order, 98% and 36 nM.
The like results for `COc1cc2nc(NCCN(C)C)nc(NC3CCN(Cc4c(OCCCN(C)C)cccc4N(C)C)CC3)c2cc1OC` [Compound 203, N˜4˜-(1-{2-(Dimethylamino)-6-[3-(dimethylamino)propoxy]benzyl}piperidin-4-yl)-N˜2˜-[2-(dimethylamino)ethyl]-6,7-dim ethoxyquinazoline-2,4-diamine] were, in that order, 94% and 66 nM.
For `COc1cc2nc(NCc3ncco3)nc(NC3CCN(Cc4c(OCCN(C)C)cccc4N(C)C)CC3)c2cc1OC` [Compound 204, N˜4˜-(1-{2-(Dimethylamino)-6-[2-(dimethylamino)ethoxy]benzyl}piperidin-4-yl)-6,7-dimethoxy-N2(1,3-oxazol-2-ylmethyl)quinazoline-2,4-diamine], the “CXCR4 (% Inh)” value amounted to 92%. This compound showed a concentration for half-maximal inhibition (IC50) (values in nM) of 47 nM.
The like results for `COc1cc2nc(NCc3nccs3)nc(NC3CCN(Cc4c(OCCN(C)C)cccc4N(C)C)CC3)c2cc1OC` [Compound 205, N˜4˜-(1-{2-(Dimethylamino)-6-[2-(dimethylamino)ethoxy]benzyl}piperidin-4-yl)-6,7-dimethoxy-N˜2˜-(1,3-thiazol-2-ylmethyl)quinazoline-2,4-diamine] were, in that order, 100% and 32 nM.
The like results for `COc1cc2nc(NCc3c[nH]cn3)nc(NC3CCN(Cc4c(OCCN(C)C)cccc4N(C)C)CC3)c2cc1OC` [Compound 206, N˜4˜-(1-{2-(Dimethylamino)-6-[2-(dimethylamino)ethoxy]benzyl}piperidin-4-yl)-N˜2˜-(1H-imidazol-4-ylmethyl)-6,7-dimethoxyquinazoline-2,4-diamine] were, in that order, 96% and 16 nM.
As to `COc1cc2nc(NCCCO)nc(NC3CCN(Cc4c(OCCN(C)C)cccc4N(C)C)CC3)c2cc1OC` [Compound 207, 3-({4-[(1-{2-(Dimethylamino)-6-[2-(dimethylamino)ethoxy]benzyl}piperidin-4-yl)amino]-6,7-dimethoxyquinazolin-2-yl}amino)propan-1-ol], the “CXCR4 (% Inh)” value was found to be 99%. The 50% inhibitory concentration (IC50) (values in nM) turned out to be 69 nM.
The like results for `COc1cc2nc(NCCO)nc(NC3CCN(Cc4c(OCCN(C)C)cccc4N(C)C)CC3)c2cc1OC` [Compound 208, 2-({4-[(1-{2-(Dimethylamino)-6-[2-(dimethylamino)ethoxy]benzyl}piperidin-4-yl)amino]-6,7-dimethoxyquinazolin-2-yl}amino)ethanol] were, in that order, 98% and 169 nM.
The like results for `COc1cc2nc(NCCc3nccs3)nc(NC3CCN(Cc4c(OCCN(C)C)cccc4N(C)C)CC3)c2cc1OC` [Compound 209, N˜4˜-(1-{2-(Dimethylamino)-6-[2-(dimethylamino)ethoxy]benzyl}piperidin-4-yl)-6,7-dimethoxy-N˜2˜-[2-(1,3-thiazol-2-yl)ethyl]quinazoline-2,4-diamine] were, in that order, 92% and 47 nM.
The like results for `COc1cc2nc(NCCc3ncc[nH]3)nc(NC3CCN(Cc4c(OCCN(C)C)cccc4N(C)C)CC3)c2cc1OC` [Compound 210, N˜4˜-(1-{2-(Dimethylamino)-6-[2-(dimethylamino)ethoxy]benzyl}piperidin-4-yl)-N˜2˜-[2-(1H-imidazol-2-yl)ethyl]-6,7-dimethoxyquinazoline-2,4-diamine] were, in that order, 97% and 65 nM.
Turning to `COc1cc2nc(NCc3cnco3)nc(NC3CCN(Cc4c(OCCN(C)C)cccc4N(C)C)CC3)c2cc1OC` [Compound 212, N˜4˜-(1-{2-(Dimethylamino)-6-[2-(dimethylamino)ethoxy]benzyl}piperidin-4-yl)-6,7-dimethoxy-N˜2˜-(1,3-oxazol-5-ylmethyl)quinazoline-2,4-diamine], the “CXCR4 (% Inh)” value is given as 98%. This compound returned an IC50 (values in nM) of 58 nM.
Turning to `COc1cc2nc(NCc3ncc[nH]3)nc(NC3CCN(Cc4c(OCCN(C)C)cccc4N(C)C)CC3)c2cc1OC` [Compound 213, N˜4˜-(1-{2-(Dimethylamino)-6-[2-(dimethylamino)ethoxy]benzyl}piperidin-4-yl)-N˜2˜-(1H-imidazol-2-ylmethyl)-6,7-dimethoxyquinazoline-2,4-diamine], the “CXCR4 (% Inh)” value was determined as 100%. The IC50 (values in nM) stood at 30 nM.
